From patent US6800470B2, “Mammalian sphingosine kinase type 2 isoforms, cloning, expression and methods of use thereof” (Sankyo Company, Ltd., priority 2000, dated 2004)
Entries after “also recorded” stand apart in the source; their conditions may differ.

Tests used:
[1] = molecular target: T1, mSPHK2 (Mus musculus, UniProt Q9JIA7); assay: SPHK activity assay with recombinant mSPHK2 (cytosol/lysates of transfected HEK293 cells, [g-32P]ATP, TLC); type: biochemical; conditions: for SPHK-dependent phosphorylation by SPHK2 (substrate specificity): lipids 50 mM as printed, cytosol of HEK293 cells transfected with mSPHK2, compared with D-erythro-sphingosine; for salt concentration with maximal stimulation of SPHK2 activity: increasing salt concentration, FIG. 5C
T1 construct: The open reading frames of mSPHK2 and hSPHK2 encode polypeptides of 617 and 618 amino acids, respectively; made in house; host or cells: HEK293 (ATCC CRL-1573), transient transfection; unpurified cytosol or whole lysate
T1 sequence (Q9JIA7 1-617): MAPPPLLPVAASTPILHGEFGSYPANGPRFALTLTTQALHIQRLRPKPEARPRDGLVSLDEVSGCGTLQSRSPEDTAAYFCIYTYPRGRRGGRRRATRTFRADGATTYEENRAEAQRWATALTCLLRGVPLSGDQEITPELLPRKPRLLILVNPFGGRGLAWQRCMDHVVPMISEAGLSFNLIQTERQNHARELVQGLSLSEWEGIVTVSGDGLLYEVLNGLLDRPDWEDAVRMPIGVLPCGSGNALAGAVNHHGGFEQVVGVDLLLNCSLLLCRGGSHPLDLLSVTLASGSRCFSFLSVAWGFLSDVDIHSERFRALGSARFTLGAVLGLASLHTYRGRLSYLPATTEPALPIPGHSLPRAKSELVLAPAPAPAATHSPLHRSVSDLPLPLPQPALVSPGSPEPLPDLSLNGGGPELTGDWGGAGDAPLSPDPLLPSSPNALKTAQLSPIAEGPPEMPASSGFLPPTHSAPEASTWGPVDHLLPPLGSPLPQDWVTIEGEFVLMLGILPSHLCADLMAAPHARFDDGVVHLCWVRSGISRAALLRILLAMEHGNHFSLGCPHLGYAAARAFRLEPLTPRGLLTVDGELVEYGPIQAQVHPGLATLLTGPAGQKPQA
Protocol: Lanes: 1, D-erythro-sphingosine (“D-erythro-Sph”); 2, D-erythro-dihydrosphingosine (“D-erythro-DHS”); 3, D, L-threo-DHS; 4, N,N-dimethylsphingosine (“DMS”); 5, C2-ceramide; 6, C16-ceramide; 7, diacylglycerol; 8, phosphatidylinositol; 9, phytosphingosine. Data are expressed as percentage of phosphorylation of D-erythro-Sph.
SPHK activity in HEK293 cell lysates after transfection as in FIG. 4A was measured with 10 μM D-erythro-sphingosine in the presence of increasing concentrations of DMS.
SPHK activity was measured with varying concentrations of D-erythro-sphingosine in the absence (open circles) or presence of 10 μM (filled squares) or 20 μM DMS (filled triangles).
FIG. 4D are Lineweaver-Burk plots.
(§1) In FIGS. 5B and 5C, the SPHK activity in HEK293 cell lysates was measured 24 hours after transfection with mSPHK1 (FIG. 5B) or mSPHK2 (FIG. 5C) in the absence or presence of increasing concentrations of NaCl (open squares) or KCl (filled circles).
FIG. 5E are Lineweaver-Burk plots of data from FIG. 5D.
(§2) HEK293 cells were transfected with mSPHK1a (open circles) or mSPHK2 (filled circles) and the activities of each in cell lysates were measured after 24 hours in the presence of the indicated concentrations of Triton X-100 (FIG. 6A) or BSA (FIG. 6B).
(§3) HEK293 cells were transfected with mSPHK1a (circles) or mSPHK2 (triangles) and the activities of each in cell lysates were measured after 24 hours in the presence of the indicated concentrations of phosphatidylserine (filled symbols) or phosphatidylcholine (open symbols). Data are expressed as percentage of control activity measured without any additions.
(§4) Human embryonic kidney cells (HEK293, ATCC CRL-1573) and NIH 3T3 fibroblasts (ATCC CRL-1658) were cultured as described in Olivera, A., Kohama, T., Edsall, L. C., Nava, V., Cuvillier, O., Poulton, S., and Spiegel, S., J. Cell Biol., 147 (1999) 545-558. HEK293 cells were seeded at 6×10^5 per well in poly-L-lysine coated 6 well plates. After 24 hours, cells were transfected with 1 μg of vector alone or with vectors containing sphingosine kinase constructs and 6 μl of “Lipofectamine PLUS” reagent plus 4 μl of “Lipofectamine” reagent per well. One to three days after transfection, cells were harvested and lysed by freeze-thawing as described in Kohama, T., Olivera, A., Edsall, L., Nagiec, M. M., Dickson, R., and Spiegel, S., J. Biol. Chem., 273, (1998), 23722-23728. In some experiments, cell lysates were fractionated into cytosol and membrane fractions by centrifugation at 100,000×g for 60 minutes. SPHK activity was determined in the presence of sphingosine, prepared as a complex with 4 mg/ml BSA, and [g-32P] ATP in kinase buffer (Olivera, A. and Spiegel, S. in Methods in Molecular Biology, (Bird, I. M. ed.), (1998), Vol. 105, 233-242, Humana Press, Inc., Totowa, N.J.), containing 200 mM KCl, unless indicated otherwise. 32P-SPP was separated by TLC and quantified with a phosphoimager as previously described.

[2] = molecular target: T2, mSPHK1a (Mus musculus, UniProt Q8CI15); assay: SPHK activity assay with recombinant mSPHK1a (lysates of transfected HEK293 cells); type: biochemical; conditions: for inhibition of SPHK1 activity: salt concentration 200 mM
T2 construct: made in house; host or cells: HEK293 (ATCC CRL-1573), transient transfection; unpurified cell lysate
Protocol: as §1, §2, §3, §4

[3] = molecular target: T2, mSPHK1a; conditions: cited from earlier work; for inhibition of SPHK1: previously shown (Edsall et al. 1998)
[4] = system: HEK293 cells; assay: SPHK activity in HEK293 cells transiently transfected with SPHK expression vectors (cytosol and particulate fractions); type: cell-based, human; conditions: 24 hours after transfection of HEK293 cells
Protocol: In FIG. 3A, HEK 293 cells were transiently transfected with an empty vector or with mSPHK2 or hSPHK2 expression vectors. After 24 hours, SPHK activity was measured in cytosol (open bars) and particulate fractions (filled bars). The data are means±S.D. Parental and vector-transfected cells had basal SPHK activities of 26 and 37 pmol/min/mg, respectively.
as §4

[5] = system: HEK293 cells; assay: Mass levels of SPP in HEK293 cells after transfection with SPHK2; type: cell-based, human; conditions: HEK 293 cells after transfection
Protocol: Mass levels of SPP in HEK293 cells transfected with an empty vector (open bars) or with mSPHK2 (filled bars) or with hSPHK2 (hatched bars) were measured as described hereinbelow. The data are expressed as pmol/nmol phospholipid.
Cells were washed with PBS and scraped in 1 ml of methanol containing 2.5 μl concentrated HCl. Lipids were extracted by adding 2 ml chloroform/1M NaCl (1:1, v/v) and 100 μl 3N NaOH and phases separated. The basic aqueous phase containing SPP, and devoid of sphingosine, ceramide, and the majority of phospholipids, was transferred to a siliconized glass tube. The organic phase was re-extracted with 1 ml methanol/1M NaCl (1:1, v/v) plus 50 μl 3N NaOH, and the aqueous fractions were combined. Mass measurement on SPP in the aqueous phase and total phospholipids in the organic phase were measured exactly as described in Edsall, L. C., Pirianov, G. G., and Spiegel, S., J. Neurosci., 17, (1997) 6952-6960; Edsall, L. C., and Spiegel, S., Anal. Biochem., 272, (1999) 80-86).

T2 sequence (Q8CI15 1-381 isoform Q8CI15-3): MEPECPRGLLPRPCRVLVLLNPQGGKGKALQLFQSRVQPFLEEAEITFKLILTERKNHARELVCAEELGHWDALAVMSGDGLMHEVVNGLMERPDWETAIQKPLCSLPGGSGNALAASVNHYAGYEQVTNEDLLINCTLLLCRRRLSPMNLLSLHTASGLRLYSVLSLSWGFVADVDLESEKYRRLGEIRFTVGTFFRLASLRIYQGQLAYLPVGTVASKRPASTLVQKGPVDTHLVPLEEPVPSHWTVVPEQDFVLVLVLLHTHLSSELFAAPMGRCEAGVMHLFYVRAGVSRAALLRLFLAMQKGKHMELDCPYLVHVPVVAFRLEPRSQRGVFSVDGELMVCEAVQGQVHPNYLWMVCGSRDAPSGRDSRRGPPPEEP

For CCCCCCCCCCCCC/C=C/[C@@H](O)[C@H](CO)NC(=O)CCCCCCCCCCCCCCC [C16-ceramide], the “SPHK-dependent phosphorylation by SPHK2 (substrate specificity)” value (“SPHK-dependent phosphorylation by SPHK2” for short) [1] was “not phosphorylated”.

For “phosphatidylcholine [phosphatidyicholine]”, the “effect on SPHK2 activity” value ([1]; in words) was “no effect” and the “effect on SPHK1 activity” value ([2]; in words) was “no effect”.

In the case of CCCCCCCCCCCCCC[C@@H](O)[C@@H](O)[C@@H](N)CO [phytosphingosine], the “SPHK-dependent phosphorylation by SPHK2” value [1] is reported as “significantly phosphorylated; also recorded: to a lesser extent” and the “phosphorylation by SPHK1” value [2] is reported as “not phosphorylated at all”.

In the case of CCCCCCCCCCCCC/C=C/[C@@H](O)[C@@H](N)CO [D-erythro-sphingosine], the “phosphorylation by SPHK1 (substrate rank)” value ([3]; Kohama et al. 1998) is listed as “best substrate”.

With “mSPHK1: first cloned mammalian (murine) sphingosine kinase, type 1” the “increase of in vitro SPHK activity over basal levels” value [4] was 610 fold.

In the case of CCCCCCCCCCCCC/C=C/[C@@H](O)[C@H](CO)NC(C)=O [C2-ceramide], the “SPHK-dependent phosphorylation by SPHK2” value [1] is reported as “not phosphorylated”.

In the case of [Cl-].[K+] [KCl], the “Km value of mSPHK2 for sphingosine in the presence of KCl” value ([1]; 50 or 200 mM KCl) is reported as “not affected”, the “Vmax of mSPHK2” value ([1]; in the presence of 50 mM KCl) is reported as 0.3 nmol/min/mg and the “Vmax of mSPHK2” value ([1]; in the presence of 200 mM KCl) is reported as 1 nmol/min/mg. The “effect on SPHK2 activity” value ([1]; in words) was “dramatically stimulated; also recorded: markedly stimulated”, the “salt concentration with maximal stimulation of SPHK2 activity” value [1] was 400 mM and the “inhibition of SPHK1 activity” value [2] was 50%.

For CCCCCCCCCCCCCCC[C@@H](O)[C@@H](N)CO [D-erythro-dihydrosphingosine], the “SPHK-dependent phosphorylation by SPHK2” value [1] was “better substrate for SPHK2 than D-erythro-sphingosine”.

In the case of phosphatidylinositol, the “SPHK-dependent phosphorylation by SPHK2” value [1] is reported as “not phosphorylated”.

For phosphatidylserine, the “effect on SPHK2 activity” value ([1]; in words) was “stimulated”, the “maximal increase of SPHK2 activity” value ([1]; phosphatidylserine 40 μg/ml) was 4 fold and the “effect on SPHK1 activity” value ([2]; in words) was “stimulated”. For the same molecule, the “maximal increase of SPHK1 activity” value ([2]; phosphatidylserine 40 μg/ml) was 4 fold.

For CCCCCCCCCCCCCCC[C@H](O)[C@@H](N)CO [D,L-threo-dihydrosphingosine], the “SPHK-dependent phosphorylation by SPHK2” value [1] was “significantly phosphorylated”, the “SPHK-dependent phosphorylation by SPHK2” value ([1]; listed as D, L-threo-dihydrosphingosine) was “to a lesser extent” and the “phosphorylation by SPHK1” value [2] was “not phosphorylated at all”.

In the case of CCCCCCCCCCCCCCC[C@@H](O)[C@@H](N)CO [DHS, dihydrosphingosine], the “inhibition of SPHK1” value [3] is listed as “potent competitive inhibitors; also recorded: potent inhibitor” and the “SPHK-dependent phosphorylation by SPHK2” value [1] is listed as “even better substrate than D-erythro-sphingosine”.

For Triton X-100, the “effect on SPHK2 activity” value ([1]; Triton X-100 0.5%) was “almost completely inhibited”, the “effect on SPHK2 activity” value ([1]; detergent below 0.005%) was “no effect” and the “effect on SPHK2 activity” value ([1]; in words) was “inhibited”. The “increase of SPHK1 activity” value ([2]; Triton X-100 0.5%) was “more than 4 fold”, the “effect on SPHK1 activity” value ([2]; detergent below 0.005%) was “no effect” and the “effect on SPHK1 activity” value ([2]; in words) was “markedly increased”.

With [Cl-].[Na+] [NaCl] the “effect on SPHK2 activity” value ([1]; in words) was “dramatically stimulated; also recorded: markedly stimulated”, the “salt concentration with maximal stimulation of SPHK2 activity” value [1] was 400 mM and the “inhibition of SPHK1 activity” value [2] was 50%.

For diacylglycerol, the “SPHK-dependent phosphorylation by SPHK2” value [1] was “not phosphorylated”.

In the case of N,N-dimethylsphingosine [DMS], the “inhibition of SPHK1” value [3] is listed as “potent competitive inhibitors; also recorded: competitive inhibitor”, the “inhibition of SPHK2” value ([1]; 10 μM D-erythro-sphingosine, increasing concentrations of DMS (FIG. 4B)) is listed as “potent inhibitor” and the “manner of inhibition of SPHK2” value ([1]; kinetic analysis, FIG. 4C and 4D) is listed as “non-competitive”. For the same molecule, the “SPHK-dependent phosphorylation by SPHK2” value [1] was “not phosphorylated” and the Ki ([1]; recombinant mSPHK2, HEK293 cell lysates, varying D-erythro-sphingosine, 10 or 20 μM DMS, Lineweaver-Burk, read-out: Ki for DMS with SPHK2) was 12 µM.

B1: hSPHK2: human sphingosine kinase type 2, polypeptide of 618 amino acids (SEQ ID NO 14) (protein)
chain: MAPPPPPLAASTPLLHGEFGSYPARGPRFALTLTSQALHIQRLRPKPEARPRGGLVPLAEVSGCCTLRSRSPSDSAAYFCIYTYPRGRRGARRRATRTFRADGAATYEENRAEAQRWATALTCLLRGLPLPGDGEITPDLLPRPPRLLLLVNPFGGRGLAWQWCKNHVLPMISEAGLSFNLIQTERQNHARELVQGLSLSEWDGIVTVSGDGLLHEVLNGLLDRPDWEEAVKMPVGILPCGSGNALAGAVNQHGGFEPALGLDLLLNCSLLLCRGGGHPLDLLSVTLASGSRCFSFLSVAWGFVSDVDIQSERFRALGSARFTLGTVLGLATLHTYRGRLSYLPATVEPASPTPAHSLPRAKSELTLTPDPAPPMAHSPLHRSVSDLPLPLPQPALASPGSPEPLPILSLNGGGPELAGDWGGAGDAPLSPDPLLSSPPGSPKAALHSPVSEGAPVIPPSSGLPLPTPDARVGASTCGPPDHLLPPLGTPLPPDWVTLEGDFVLMLAISPSHLGADLVAAPHARFDDGLVHLCWVRSGISRAALLRLFLAMERGSHFSLGCPQLGYAAARAFRLEPLTPRGVLTVDGEQVEYGPLQAQMHPGIGTLLTGPPGCPGREP
For B1, the “increase of in vitro SPHK activity over basal levels” value [4] was 35 fold and the “increase in SPP” value [5] was 3.3 fold.
